This is an account of results in publication PMC13267113 (npj Drug Discovery, 2025).

Data set [1] is described as follows: Mouse plasma protein binding. The data set is classed as in vitro ADME. Particulars: read-out: Mouse PPB (converted).
The target of data set [2] is T1, scavenger receptor class B member 1 (SCARB1) (Homo sapiens, UniProt Q8WTV0).
T1 construct: endogenous in cells; host or cells: HepG2
T1 sequence (Q8WTV0 1-509 isoform Q8WTV0-2): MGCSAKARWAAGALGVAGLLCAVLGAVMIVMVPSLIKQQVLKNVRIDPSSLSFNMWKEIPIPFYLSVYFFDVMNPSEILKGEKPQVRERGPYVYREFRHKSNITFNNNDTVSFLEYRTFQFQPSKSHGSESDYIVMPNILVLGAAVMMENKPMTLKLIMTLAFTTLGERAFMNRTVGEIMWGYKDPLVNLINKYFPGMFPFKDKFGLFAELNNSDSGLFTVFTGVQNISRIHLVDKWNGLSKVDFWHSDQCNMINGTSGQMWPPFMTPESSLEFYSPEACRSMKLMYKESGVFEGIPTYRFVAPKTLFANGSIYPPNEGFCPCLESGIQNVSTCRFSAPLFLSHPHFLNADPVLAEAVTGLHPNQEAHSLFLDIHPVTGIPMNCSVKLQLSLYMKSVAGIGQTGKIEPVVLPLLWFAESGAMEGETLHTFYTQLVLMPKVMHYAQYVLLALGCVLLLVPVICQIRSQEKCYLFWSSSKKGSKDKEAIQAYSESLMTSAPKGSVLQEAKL
Briefly: Affinity-based protein profiling (AfBPP), SCARB1. Conditions: 12.5 µM pre-treatment before Cysto-354 (2.5 µM), HepG2, n = 4. The format is binding. The method, then: Cells were seeded in 100 mm cell-bind petri dishes with a concentration of 2.8 × 10^6 cells per sample and incubated (37 °C, 5% CO2) for 3 days to reach ~80% confluence. Cells were washed with warm PBS prior to compound addition. Compound solutions as well as the DMSO control were generally added as freshly prepared solutions in pre-warmed, serum-free culture medium. Affinity-based proteome profiling was performed by treating the respective cell line with Cysto-354 (2.5 µM) for 3 h. For competition samples, cells were treated with CN-861-2 (12.5 µM) for 1 h, prior to addition of photo-probe Cysto-354 (2.5 µM) for 3 h incubation time. Control samples were treated with DMSO. Afterwards, cells were UV-irradiated for 10 min on ice, scraped off and transferred to Eppendorf tubes for washing with 1 mL cold PBS (centrifuge 5 min, 500g, 4 °C). The cell pellet was stored at −80 °C until lysis. Further sample preparation was done as previously described. […]
Peptides were measured and online-separated using an UltiMate 3000 nano HPLC system (Dionex) coupled to a Bruker timsTOF Pro mass spectrometer via a CaptiveSpray nano-electrospray ion source and Sonation column oven. […]
MS raw data was analyzed using MaxQuant software (version 2.0.3.0) and peptides were searched against Uniprot database for Homo sapiens (taxon identifier: 9606, downloaded on 11.03.2022, canonical, reviewed). […]

Another data set deals with CHO-K1 (hamster, ovary). Briefly: MTT cytotoxicity CHO-K1. The data set is classed as cell-based. Particulars: CHO-K1, 72 h, n = 3. On the procedure: All cell types were cultivated at 37 °C with 5% CO2. HepG2, HEK293, HCT116, CHO-K1, HeLa-CCL-2 and Huh-7.5 were purchased from ATCC. The respective cell media (Gibco) were supplemented with 10% FBS (Gibco) before usage. Cells were used between passages #5 and #30. To obtain biological repeats, cells were split separately for at least two passages.
Cells were washed with PBS and 0.5 mL trypsin was added. Afterwards, cells were incubated for 5 min before adding 10 mL medium containing 10% FBS. Per well, 120 µL cell suspension (5 × 10^4 cells/mL) was seeded in transparent 96-well cell bind plates and incubated for 2 h (37 °C, 5% CO2). A dilution series (1:3) of test compounds was prepared in respective media containing 10% FBS and added (60 µL) to the prepared cell plate. Cells were incubated for a further 72 h (37 °C, 5% CO2). Next, 20 µL MTT (5 mg/mL in PBS) was added to each well and incubated for 2 h (37 °C, 5% CO2). The wells were emptied and 100 µL isopropanol/10 N HCl (1000:4) per well was added.
The plates were analyzed by measuring the absorbance at 570 nm (plate reader Infinite® 200 Pro, Tecan). After normalization of data to the respective solvent controls, the calculated percentage of growth inhibition was plotted using GraphPad Prism software (version 10.0.2).

The structures appear in SMILES notation.

As to `CO[C@H](C(N)=O)[C@H](NC(=O)c1ccc(NC(=O)c2ccc(C#N)cc2)cc1)C(=O)Nc1ccc(C(=O)Nc2ccc(C(=O)Nc3ccc(C(=O)O)cc3)c(O)c2OC(C)C)cc1` [CN-861-2], the fraction unbound in data set [1] was 0.0037. The “competition of SCARB1 enrichment” value in data set [2] was “significant competition”. Moreover, the IC50 in the data set on CHO-K1 (hamster, ovary) was over 20 µM.

One may read the IC50 as the concentration that inhibits the measured activity by half.
